Values after ≈ are worked out from the molar mass of the structure shown. Counter-ions that a name gives are not always drawn. Like-named read-outs stand apart in the source and are kept apart here.
Columns and labels:
Ent. cloacae MA2646 = test: in vitro antibacterial activity, microtitration dilution (MIC), Ent. cloacae MA2646; assay type: cell-based; conditions: Enterobacter cloacae, read-out: minimum inhibiting concentration (MIC)
From the text: (§1) The in vitro antibacterial activity, is obtained by the microtitration dilution method as described in Heifetz, et al., Antimicr. Agents & Chemother., 6, 124 (1974), which is incorporated herein by reference.
(§2) By use of the above methods, the following minimum inhibiting concentration values (MICs in μg/mL), PD50 's in mg/kg, no effect phototoxicity dose in mg/kg and the cytotoxicity IC50 in μg/mL were obtained for representative enantiomers of the invention and compounds of the prior art as shown in the table.

Klebs. pneumoniae MGH-2 = test: in vitro antibacterial activity, microtitration dilution (MIC), Klebs. pneumoniae MGH-2; assay type: cell-based; conditions: Klebsiella pneumoniae, MGH2, read-out: minimum inhibiting concentration (MIC)
From the text: as §1, §2

Prot. rettgeri M 1771 = test: in vitro antibacterial activity, microtitration dilution (MIC), Prot. rettgeri M 1771; assay type: cell-based; conditions: Providencia rettgeri, M1771, read-out: minimum inhibiting concentration (MIC)
From the text: as §1, §2

Pseud. aeruginosa UI-18 = test: in vitro antibacterial activity, microtitration dilution (MIC), Pseud. aeruginosa UI-18; assay type: cell-based; conditions: Pseudomonas aeruginosa, UI18, read-out: minimum inhibiting concentration (MIC)
From the text: as §1, §2

Staph. aureus H 228 = test: in vitro antibacterial activity, microtitration dilution (MIC), Staph. aureus H 228; assay type: cell-based; conditions: Staphylococcus aureus, H228, read-out: minimum inhibiting concentration (MIC)
From the text: as §1, §2

Staph. aureus UC-76 = test: in vitro antibacterial activity, microtitration dilution (MIC), Staph. aureus UC-76; assay type: cell-based; conditions: Staphylococcus aureus, UC76, read-out: minimum inhibiting concentration (MIC)
From the text: as §1, §2

Strep. faecalis MGH-2 = test: in vitro antibacterial activity, microtitration dilution (MIC), Strep. faecalis MGH-2; assay type: cell-based; conditions: Enterococcus faecalis, MGH2, read-out: minimum inhibiting concentration (MIC)
From the text: as §1, §2

Strep. pheumoniae SV-1 = test: in vitro antibacterial activity, microtitration dilution (MIC), Strep. pneumoniae SV-1; assay type: cell-based; conditions: Streptococcus pneumoniae, SV1, read-out: minimum inhibiting concentration (MIC)
From the text: as §1, §2

Strep. pyogenes C-203 [1] = test: in vitro antibacterial activity, microtitration dilution (MIC), Strep. pyogenes C-203; assay type: cell-based; conditions: Streptococcus pyogenes, C203, read-out: minimum inhibiting concentration (MIC)
From the text: as §1, §2

Strep. pyogenes C-203 [2] = test: median protective dose in mice given lethal systemic infections, Strep. pyogenes C-203; assay type: in vivo; conditions: Streptococcus pyogenes, single dose at time of challenge, read-out: median protective dose (PD50)
Method: The in vivo activity is obtained when the compounds are tested according to the procedure of Miller, et al (Proc. Soc. Exp. Biol. Med. 57, 261, 1944). The median protective dose (PD50) was determined in mice given lethal systemic infections. Single doses of compound were given at time of challenge.
as §2
The in vivo data as PD50 s are reported below the line of MICs for the same compound.

Esch. coli Vogel = test: in vitro antibacterial activity, microtitration dilution (MIC), Esch. coli Vogel; assay type: cell-based; conditions: Escherichia coli, read-out: minimum inhibiting concentration (MIC)
From the text: as §1, §2

| MIC (Ent. cloacae MA2646) [µg/mL] | MIC (Klebs. pneumoniae MGH-2) [µg/mL] | MIC (Prot. rettgeri M 1771) [µg/mL] | MIC (Pseud. aeruginosa UI-18) [µg/mL] | MIC (Staph. aureus H 228) [µg/mL] | MIC (Staph. aureus UC-76) [µg/mL] | MIC (Strep. faecalis MGH-2) [µg/mL] | MIC (Strep. pheumoniae SV-1) [µg/mL] | MIC (Strep. pyogenes C-203 [1]) [µg/mL] | MIC (Esch. coli Vogel) [µg/mL] | SMILES | ED50 (Strep. pyogenes C-203 [2]; C203, PO) [mg/kg] | ED50 (Strep. pyogenes C-203 [2]; C203, SC) [mg/kg] |
| --- | --- | --- | --- | --- | --- | --- | --- | --- | --- | --- | --- | --- |
| 0.4 (≈ 0.958 µM) | 0.8 (≈ 1.92 µM) | 1.6 (≈ 3.83 µM) | 6.3 (≈ 15.1 µM) | 0.1 (≈ 0.24 µM) | 0.05 (≈ 0.12 µM) | 0.1 (≈ 0.24 µM) | 0.013 (≈ 0.0311 µM) | 0.025 (≈ 0.0599 µM) | 0.4 (≈ 0.958 µM) | CCN[C@H](C)[C@H]1CCN(c2c(F)cc3c(=O)c(C(=O)O)cn(C4CC4)c3c2OC)C1 [Example 19, 3S,1R-1-cyclopropyl-6-fluoro-7-[3-(1-N-ethylaminoethyl)1-pyrrolidinyl]-8-methoxy-1,4-dihydro-4-oxo-3-quinolinecarboxylic acid] | – | – |
| 0.4 (≈ 0.984 µM) | 0.8 (≈ 1.97 µM) | 1.6 (≈ 3.94 µM) | 3.1 (≈ 7.63 µM) | 0.8 (≈ 1.97 µM) | 0.4 (≈ 0.984 µM) | 1.6 (≈ 3.94 µM) | 0.8 (≈ 1.97 µM) | 1.6 (≈ 3.94 µM) | 0.4 (≈ 0.984 µM) | CN[C@H](C)[C@H]1CCN(c2c(F)c(N)c3c(=O)c(C(=O)O)cn(C4CC4)c3c2F)C1 [Example 34, 3S,1R-5-amino-1-cyclopropyl-6,8-difluoro-7-[3-(1-N-methylaminoethyl)-1-pyrrolidinyl]-1,4-dihydro-4-oxo-3-quinolinecarboxylic acid] | – | – |
| 0.4 (≈ 1.03 µM) | 0.8 (≈ 2.06 µM) | 3.1 (≈ 7.98 µM) | 12.5 (≈ 32.2 µM) | 0.4 (≈ 1.03 µM) | 0.2 (≈ 0.515 µM) | 0.8 (≈ 2.06 µM) | 0.2 (≈ 0.515 µM) | 0.4 (≈ 1.03 µM) | 0.4 (≈ 1.03 µM) | C[C@@H]([C@H]1CCN(c2nc3c(cc2F)c(=O)c(C(=O)O)cn3C2CC2)C1)N(C)C [Example 70, 3S,1S-1-cyclopropyl-7-[3-[1-(dimethylamino)ethyl]-1-pyrrolidinyl]-6-fluoro-1,4-dihydro-4-oxo-1,8-naphthyridine-3-carboxylic acid] | – | – |
| 0.4 (≈ 0.845 µM) | 0.8 (≈ 1.69 µM) | 1.6 (≈ 3.38 µM) | 3.1 (≈ 6.55 µM) | 0.025 (≈ 0.0528 µM) | 0.013 (≈ 0.0275 µM) | 0.1 (≈ 0.211 µM) | 0.013 (≈ 0.0275 µM) | 0.013 (≈ 0.0275 µM) | 0.4 (≈ 0.845 µM) | CCN[C@@H](C)[C@@H]1CCN(c2cc3c(c(C)c2F)c(=O)c(C(=O)O)cn3-c2ccc(F)cc2F)C1 [Example 54, 3R,1S-7-[3-(1-N-ethylaminoethyl)-1-pyrrolidinyl]-1-(2,4-difluorophenyl)-6-fluoro-1,4-dihydro-5-methyl-4-oxo-3-quinolinecarboxylic acid] | – | – |
| 0.4 (≈ 1.07 µM) | 0.4 (≈ 1.07 µM) | 0.8 (≈ 2.14 µM) | 3.1 (≈ 8.28 µM) | 0.8 (≈ 2.14 µM) | 0.2 (≈ 0.534 µM) | 0.8 (≈ 2.14 µM) | 0.4 (≈ 1.07 µM) | 0.4 (≈ 1.07 µM) | 0.2 (≈ 0.534 µM) | CN[C@@H](C)[C@H]1CCN(c2nc3c(cc2F)c(=O)c(C(=O)O)cn3C2CC2)C1 [Example 24, 3S,1S-1-cyclopropyl-6-fluoro-7-[3-(1-N-methylaminoethyl)-1-pyrrolidinyl]-1,4-dihydro-4-oxo-1,8-naphthyridine-3-carboxylic acid] | – | – |
| 0.2 (≈ 0.468 µM) | 0.2 (≈ 0.468 µM) | 0.4 (≈ 0.936 µM) | 1.6 (≈ 3.74 µM) | 0.013 (≈ 0.0304 µM) | 0.006 (≈ 0.014 µM) | 0.025 (≈ 0.0585 µM) | 0.006 (≈ 0.014 µM) | 0.006 (≈ 0.014 µM) | 0.2 (≈ 0.468 µM) | C[C@H](N)[C@@H]1CCN(c2c(F)cc3c(=O)c(C(=O)O)cn(C4CC4)c3c2C(F)(F)F)C1 [Example 60, 3R,1S-7-[3-(1-aminoethyl)-1-pyrrolidinyl]-1-cyclopropyl-6-fluoro-1,4-dihydro-4-oxo-8-trifluoromethyl-3-quinolinecarboxylic acid] | – | – |

| SMILES | MIC (Ent. cloacae MA2646) [µg/mL] | MIC (Klebs. pneumoniae MGH-2) [µg/mL] | MIC (Prot. rettgeri M 1771) [µg/mL] | MIC (Pseud. aeruginosa UI-18) [µg/mL] | MIC (Staph. aureus H 228) [µg/mL] | MIC (Staph. aureus UC-76) [µg/mL] | MIC (Strep. faecalis MGH-2) [µg/mL] | MIC (Strep. pheumoniae SV-1) [µg/mL] | MIC (Strep. pyogenes C-203 [1]) [µg/mL] | MIC (Esch. coli Vogel) [µg/mL] | ED50 (Strep. pyogenes C-203 [2]; C203, PO) [mg/kg] | ED50 (Strep. pyogenes C-203 [2]; C203, SC) [mg/kg] |
| --- | --- | --- | --- | --- | --- | --- | --- | --- | --- | --- | --- | --- |
| CN[C@@H](C)[C@@H]1CCN(c2cc3c(c(C)c2F)c(=O)c(C(=O)O)cn3C2CC2)C1 [Example 67, 3R,1S-1-cyclopropyl-6-fluoro-1,4-dihydro-5-methyl-7-[3-[1-(methylamino)ethyl]-1-pyrrolidinyl]-4-oxo-3-quinolinecarboxylic acid, monohydrochloride] | 0.4 | 0.8 | 1.6 | 3.1 | 0.05 | 0.013 | 0.1 | 0.013 | 0.025 | – | 29 | 3 |

From patent publication US5563155A, “Individual stereosiomers of 7-[3-(aminoalkyl)-1-pyrrolidinyl]-quinolones and naphthyridones as antibacterial agents” (Warner-Lambert Company, priority 1995, dated 1996)
